Columns and labels:
[1] = test system: pentagastrin-stimulated acid secretion of the perfused rat stomach; assay: Secretion-inhibiting action on the perfused rat stomach (pentagastrin-stimulated acid secretion); assay type: in vivo; conditions: intraduodenal, anesthetized CD rat, dose 1 μmol/kg i.d.
Text: Testing of the Secretion-Inhibiting Action on the Perfused Rat Stomach
In Table A which follows, the influence of the compounds of the formula 1 according to the invention on the pentagastrin-stimulated acid secretion of the perfused rat stomach after intraduodenal administration in vivo is shown.
The abdomen of anesthetized rats (CD rat, female, 200-250 g; 1.5 g/kg i.m. urethane) was opened after tracheotomy by a median upper abdominal incision and a PVC catheter was fixed transorally in the esophagus and another via the pylorus such that the ends of the tubes just projected into the gastric lumen. The catheter leading from the pylorus led outward into the right abdominal wall through a side opening.
After thorough rinsing (about 50-100 ml), warm (37° C.) physiological NaCl solution was conbinuously passed through the stomach (0.5 ml/min, pH 6.8-6.9; Braun-Unita I). The pH (pH meter 632, glass electrode EA 147; φ=5 mm, Metrohm) and, by titration with a freshly prepared 0.01N NaOH solution to pH 7 (Dosimat 665 Metrohm), the secreted HCl were determined in the effluent in each case collected at an interval of 15 minutes.
The gastric secretion was stimulated by continuous infusion of 1 μg/kg (=1.65 mllh) of i.v. pentagastrin (left femoral vein) about 30 min after the end of the operation (i.e. after determination of 2 preliminary fractions). The substances to be tested were administered intraduodenally in a 2.5 ml/kg liquid volume 60 min after the start of the continuous pentagastrin infusion. The body temperature of the animals was kept at a constant 37.8-38° C. by infrared irradiation and heat pads (automatic, stepless control by means of a rectal temperature sensor).

Row | melting point [°C] | SMILES | inhibition in vivo at 1 µmol/kg [1] [%]
1 | 222 to 223 | Cc1nc2c3c(c(C(=O)N4CCC4)cc2n1C)CCC1(Cc2ccccc2C1)N3 [Example 23, 5-(azetidin-1-ylcarbonyl)-2,3-dimethyl-1′,3,3′,6,7,9-hexahydrospiro[imidazo[4,5-h]-quinoline-8,2′-indene]] | > 80
2 | 247 to 248 | Cc1nc2c3c(c(C(=O)NC4CC4)cc2n1C)CCC1(Cc2ccccc2C1)N3 [Example 24, N-cyclopropyl-2,3-dimethyl-1′,3,3′,6,7,9-hexahydrospiro[imidazo[4,5-h]quinoline-8,2′-indene]-5-carboxamide] | > 80
3 | 284 to 285 | Cc1nc2c3c(c(C(=O)N4CCOCC4)cc2n1C)CCC1(Cc2ccccc2C1)N3 [Example 25, 2,3-dimethyl-5-(morpholin-4-ylcarbonyl)-1′,3,3′,6,7,9-hexahydrospiro[imidazo[4,5-h]-quinoline-8,2′-indene]] | > 80
4 | 188 to 189 | COCCCNC(=O)c1cc2c(nc(C)n2C)c2c1CCC1(Cc3ccccc3C1)N2 [Example 27, N-(3-methoxypropyl)-2,3-dimethyl-1′,3,3′,6,7,9-hexahydrospiro[imidazo[4,5-h]quinoline-8,2′-indene]-5-carboxamide] | > 80
